Laboratory results as given in ChEMBL document CHEMBL4420076, “Amylin and calcitonin receptor agonist” (2017).
Numbered stars: 1 amine (or outer) side, 2 acyl side, 3 side chain; on linkers, the order of the positions; unused ones are H or OH. Peptide text beside a SMILES is read from it. * marks the point of attachment. C20 diacid = O=C(O)CCCCCCCCCCCCCCCCCCC(=O)*; C18 diacid = O=C(O)CCCCCCCCCCCCCCCCC(=O)*; C16 diacid = O=C(O)CCCCCCCCCCCCCCC(=O)*; γGlu = O=C(O)[C@H](CCC(=O)[*:2])N[*:1]

Tests used:
[1] = Solubility in 100 mM bistrispropane buffer at pH 7.0 incubated for 18 hrs by UPLC analysis; format: physicochemical
[2] = target: T1, Amylin receptor AMY3; CALCR/RAMP3 (Homo sapiens, UniProt O60896+P30988); experiment: Displacement of [125I]-labeled rat amylin from human amylin receptor expressed in BHK tkts13 whole cells co-expressing RAMP3 incubated for 60 mins by scintillation proximity assay; format: cell-based
T1 sequence (P30988 whole entry): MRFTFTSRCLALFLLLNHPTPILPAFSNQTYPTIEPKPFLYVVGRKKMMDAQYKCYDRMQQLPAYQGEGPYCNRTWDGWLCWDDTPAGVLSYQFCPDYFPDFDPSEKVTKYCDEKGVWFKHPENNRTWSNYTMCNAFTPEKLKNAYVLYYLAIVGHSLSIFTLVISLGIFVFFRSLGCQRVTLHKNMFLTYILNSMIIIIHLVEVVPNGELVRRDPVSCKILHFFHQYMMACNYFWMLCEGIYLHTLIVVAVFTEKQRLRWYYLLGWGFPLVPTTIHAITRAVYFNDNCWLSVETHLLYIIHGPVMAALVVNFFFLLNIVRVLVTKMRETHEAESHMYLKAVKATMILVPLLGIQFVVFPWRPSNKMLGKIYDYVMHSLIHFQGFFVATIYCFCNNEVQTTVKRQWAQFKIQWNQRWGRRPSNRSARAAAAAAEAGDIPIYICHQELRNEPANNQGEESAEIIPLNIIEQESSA
T1 sequence (O60896 whole entry): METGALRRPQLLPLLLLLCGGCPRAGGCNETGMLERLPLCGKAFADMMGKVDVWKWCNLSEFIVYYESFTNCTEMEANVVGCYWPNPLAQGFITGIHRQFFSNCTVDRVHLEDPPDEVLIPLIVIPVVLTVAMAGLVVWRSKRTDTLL

[3] = target: T1, Amylin receptor AMY3; CALCR/RAMP3; experiment: Agonist activity at human amylin receptor expressed in BHK570 cells co-expressing RAMP3 assessed as increase in intracellular cAMP concentration incubated for 3 hrs in absence of albumin by CRE luciferase reporter gene assay; format: functional, cell-based
[4] = Solubility in 100 mM glycylglycine buffer at pH 4.0 incubated for 18 hrs by UPLC analysis; format: physicochemical
[5] = Solubility in 100 mM glycylglycine buffer at pH 5.0 incubated for 18 hrs by UPLC analysis; format: physicochemical
[6] = Solubility in 100 mM glycylglycine buffer at pH 3.0 incubated for 18 hrs by UPLC analysis; format: physicochemical
[7] = Solubility in 100 mM bistrispropane buffer at pH 6.5 incubated for 18 hrs by UPLC analysis; format: physicochemical
Rattus norvegicus [8] = experiment: Reduction in food intake in Sprague-Dawley rat at 3 nmol/kg measured 0 to 24 hrs post dose relative to control; format: functional; set-up: scale not given: the % may be the effect or the level left
[9] = Solubility in 100 mM bistrispropane buffer at pH 8.0 incubated for 18 hrs by UPLC analysis; format: physicochemical
Calcitonin receptor [10] = target: T2, Calcitonin receptor (Homo sapiens, UniProt P30988); experiment: Displacement of [125I]-labeled human calcitonin from human calcitonin receptor expressed in BHK tkts13 whole cells incubated for 60 mins by scintillation proximity assay; format: cell-based
T2 sequence (P30988 whole entry): T1 sequence (P30988 whole entry)

Calcitonin receptor [11] = target: T2, Calcitonin receptor; experiment: Agonist activity at human calcitonin receptor expressed in BHK570 cells assessed as increase in intracellular cAMP concentration incubated for 3 hrs in absence of albumin by CRE luciferase reporter gene assay; format: functional, cell-based
[12] = Solubility in 100 mM bistrispropane buffer at pH 7.5 incubated for 18 hrs by UPLC analysis; format: physicochemical
[13] = Solubility in 100 mM bistrispropane buffer at pH 6.0 incubated for 18 hrs by UPLC analysis; format: physicochemical
Rattus norvegicus [14] = experiment: Reduction in food intake in Sprague-Dawley rat at 3 nmol/kg measured 24 to 48 hrs post dose relative to control; format: functional; set-up: scale not given: the % may be the effect or the level left
Calcitonin receptor [15] = target: T2, Calcitonin receptor; experiment: Agonist activity at human calcitonin receptor expressed in BHK570 cells assessed as increase in intracellular cAMP concentration incubated for 3 hrs in presence of 10% FBS by CRE luciferase reporter gene assay; format: functional, cell-based
[16] = target: T1, Amylin receptor AMY3; CALCR/RAMP3; experiment: Agonist activity at human amylin receptor expressed in BHK570 cells co-expressing RAMP3 assessed as increase in intracellular cAMP concentration incubated for 3 hrs in presence of 10% FBS by CRE luciferase reporter gene assay; format: functional, cell-based

CC(C)C[C@H](NC(=O)[C@H](C)NC(=O)[C@H](C)NC(=O)[C@@H](NC(=O)[C@H](CO)NC(=O)[C@H](CC(C)C)NC(=O)[C@H](CCC(=O)O)NC(=O)[C@H](CO)NC(=O)[C@H](C)NC(=O)[C@H](CCC(=O)O)NC(=O)CCCCCCCCCCCCCCC(=O)O)[C@@H](C)O)C(=O)NCC(=O)N[C@@H](CCCNC(=N)N)C(=O)N[C@@H](CC(C)C)C(=O)N[C@@H](CO)C(=O)N[C@@H](C)C(=O)N[C@@H](CCC(=O)O)C(=O)N[C@@H](CC(C)C)C(=O)N[C@@H](Cc1cnc[nH]1)C(=O)N[C@@H](CCC(=O)O)C(=O)N[C@@H](CC(C)C)C(=O)N[C@@H](C)C(=O)N[C@H](C(=O)N[C@@H](CC(C)C)C(=O)N1CCC[C@H]1C(=O)N[C@@H](CCCNC(=N)N)C(=O)N[C@H](C(=O)N[C@@H](CCC(=O)O)C(=O)N[C@H](C(=O)NCC(=O)N1CCC[C@H]1C(=O)N[C@@H](CCC(=O)O)C(=O)N[C@@H](CO)C(=O)N1CCC[C@H]1C(N)=O)[C@@H](C)O)[C@@H](C)O)[C@@H](C)O ({C16 diacid}-EASELSTAALGRLSAELHELATLPRTETGPESP-NH2)
solubility at 18 h [1]: ≥ 200 µM
IC50 [2]: 0.498 nM
EC50 [3]: 0.008 nM
solubility at 18 h [4]: ≥ 200 µM
solubility at 18 h [5]: ≥ 200 µM
solubility at 18 h [6]: ≥ 200 µM
solubility at 18 h [7]: ≥ 200 µM
Activity (Rattus norvegicus [8]): 63%
solubility at 18 h [9]: ≥ 200 µM
IC50 (Calcitonin receptor [10]): 0.413 nM
EC50 (Calcitonin receptor [11]): 0.004 nM
solubility at 18 h [12]: ≥ 200 µM
solubility at 18 h [13]: ≥ 200 µM
Activity (Rattus norvegicus [14]): 9%

CC(C)C[C@H](NC(=O)[C@H](C)NC(=O)[C@H](C)NC(=O)[C@@H](NC(=O)[C@H](CO)NC(=O)[C@H](CC(C)C)NC(=O)[C@H](CCC(=O)O)NC(=O)[C@H](CO)NC(=O)[C@H](C)NC(=O)[C@H](CCC(=O)O)NC(=O)CCCCCCCCCCCCCCCCC(=O)O)[C@@H](C)O)C(=O)NCC(=O)N[C@@H](CCCNC(=N)N)C(=O)N[C@@H](CC(C)C)C(=O)N[C@@H](CO)C(=O)N[C@@H](C)C(=O)N[C@@H](CCC(=O)O)C(=O)N[C@@H](CC(C)C)C(=O)N[C@@H](Cc1cnc[nH]1)C(=O)N[C@@H](CCC(=O)O)C(=O)N[C@@H](CC(C)C)C(=O)N[C@@H](C)C(=O)N[C@H](C(=O)N[C@@H](CC(C)C)C(=O)N1CCC[C@H]1C(=O)N[C@@H](CCCNC(=N)N)C(=O)N[C@H](C(=O)N[C@@H](CCC(=O)O)C(=O)N[C@H](C(=O)NCC(=O)N1CCC[C@H]1C(=O)N[C@@H](CCC(=O)O)C(=O)N[C@@H](Cc1cnc[nH]1)C(=O)N1CCC[C@H]1C(N)=O)[C@@H](C)O)[C@@H](C)O)[C@@H](C)O ({C18 diacid}-EASELSTAALGRLSAELHELATLPRTETGPEHP-NH2)
solubility at 18 h [1]: ≥ 200 µM
IC50 [2]: 1.27 nM
EC50 [3]: 0.02 nM
solubility at 18 h [4]: ≥ 200 µM
solubility at 18 h [5]: ≥ 200 µM
solubility at 18 h [6]: ≥ 200 µM
solubility at 18 h [7]: ≥ 200 µM
solubility at 18 h [9]: ≥ 200 µM
IC50 (Calcitonin receptor [10]): 1.17 nM
EC50 (Calcitonin receptor [11]): 0.017 nM
solubility at 18 h [12]: ≥ 200 µM
solubility at 18 h [13]: ≥ 200 µM

CC(C)C[C@H](NC(=O)[C@H](CCC(=O)O)NC(=O)[C@H](C)NC(=O)[C@H](CO)NC(=O)[C@H](CC(C)C)NC(=O)[C@H](CCCNC(=N)N)NC(=O)CNC(=O)[C@H](CC(C)C)NC(=O)[C@@H](NC(=O)[C@H](C)NC(=O)[C@@H](NC(=O)[C@H](CO)NC(=O)[C@H](CC(C)C)NC(=O)[C@H](CCC(=O)O)NC(=O)[C@H](CO)NC(=O)[C@H](C)NC(=O)[C@H](CCC(=O)O)NC(=O)CCCCCCCCCCCCCCCCC(=O)O)[C@@H](C)O)C(C)C)C(=O)N[C@@H](C)C(=O)N[C@@H](CCC(=O)O)C(=O)N[C@@H](CC(C)C)C(=O)N[C@@H](C)C(=O)N[C@H](C(=O)N[C@@H](CC(C)C)C(=O)N1CCC[C@H]1C(=O)N[C@@H](CCCNC(=N)N)C(=O)N[C@H](C(=O)N[C@@H](CCC(=O)O)C(=O)N[C@H](C(=O)NCC(=O)N1CCC[C@H]1C(=O)N[C@@H](CCC(=O)O)C(=O)N[C@@H](CO)C(=O)N1CCC[C@H]1C(N)=O)[C@@H](C)O)[C@@H](C)O)[C@@H](C)O ({C18 diacid}-EASELSTAVLGRLSAELAELATLPRTETGPESP-NH2)
solubility at 18 h [1]: ≥ 200 µM
EC50 [3]: 0.008 nM
solubility at 18 h [5]: ≥ 200 µM
solubility at 18 h [6]: ≥ 200 µM
solubility at 18 h [7]: ≥ 200 µM
Activity (Rattus norvegicus [8]): 73%
solubility at 18 h [9]: ≥ 200 µM
IC50 (Calcitonin receptor [10]): 0.752 nM
EC50 (Calcitonin receptor [11]): 0.007 nM
solubility at 18 h [12]: ≥ 200 µM
solubility at 18 h [13]: ≥ 200 µM
Activity (Rattus norvegicus [14]): 39%

CC(C)C[C@H](NC(=O)[C@H](CCCNC(=N)N)NC(=O)CNC(=O)[C@H](CC(C)C)NC(=O)[C@@H](NC(=O)[C@H](C)NC(=O)[C@@H](NC(=O)[C@H](CO)NC(=O)[C@H](CC(C)C)NC(=O)[C@H](CCC(=O)O)NC(=O)[C@H](CO)NC(=O)[C@H](C)NC(=O)CC[C@H](NC(=O)CCCCCCCCCCCCCCCCCCC(=O)O)C(=O)O)[C@@H](C)O)[C@@H](C)O)C(=O)N[C@@H](CO)C(=O)N[C@@H](C)C(=O)N[C@@H](CCC(=O)O)C(=O)N[C@@H](CC(C)C)C(=O)N[C@@H](Cc1cnc[nH]1)C(=O)N[C@@H](CCC(=O)O)C(=O)N[C@@H](CC(C)C)C(=O)N[C@@H](CO)C(=O)N[C@H](C(=O)N[C@@H](Cc1ccc(O)cc1)C(=O)N1CCC[C@H]1C(=O)N[C@@H](CCCNC(=N)N)C(=O)N[C@H](C(=O)N[C@@H](CCC(=O)O)C(=O)N[C@H](C(=O)NCC(=O)N[C@@H](CO)C(=O)NCC(=O)N[C@@H](CO)C(=O)N1CCC[C@H]1C(N)=O)[C@@H](C)O)[C@@H](C)O)[C@@H](C)O ({C20 diacid-γGlu}-ASELSTATLGRLSAELHELSTYPRTETGSGSP-NH2)
solubility at 18 h [1]: ≥ 200 µM
EC50 (Calcitonin receptor [15]): 0.105 nM
IC50 [2]: 2.61 nM
EC50 [3]: 0.022 nM
solubility at 18 h [4]: ≥ 200 µM
EC50 [16]: 0.15 nM
solubility at 18 h [6]: ≥ 200 µM
solubility at 18 h [7]: ≥ 200 µM
solubility at 18 h [9]: ≥ 200 µM
IC50 (Calcitonin receptor [10]): 2.94 nM
solubility at 18 h [12]: ≥ 200 µM
solubility at 18 h [13]: ≥ 200 µM

CC(C)C[C@H](NC(=O)[C@H](CCCNC(=N)N)NC(=O)CNC(=O)[C@H](CC(C)C)NC(=O)[C@@H](NC(=O)[C@H](C)NC(=O)[C@@H](NC(=O)[C@H](CO)NC(=O)[C@H](CC(C)C)NC(=O)[C@H](CCC(N)=O)NC(=O)[C@H](CO)NC(=O)[C@H](C)NC(=O)[C@H](CCC(=O)O)NC(=O)CC[C@H](NC(=O)CCCCCCCCCCCCCCCCCCC(=O)O)C(=O)O)[C@@H](C)O)C(C)C)C(=O)N[C@@H](CO)C(=O)N[C@@H](CCC(N)=O)C(=O)N[C@@H](CCC(=O)O)C(=O)N[C@@H](CC(C)C)C(=O)N[C@@H](Cc1cnc[nH]1)C(=O)N[C@@H](CCC(=O)O)C(=O)N[C@@H](CC(C)C)C(=O)N[C@@H](CCC(N)=O)C(=O)N[C@H](C(=O)N[C@@H](Cc1ccc(O)cc1)C(=O)N1CCC[C@H]1C(=O)N[C@@H](CCCNC(=N)N)C(=O)N[C@H](C(=O)NCC(=O)N[C@H](C(=O)NCC(=O)N[C@@H](CO)C(=O)NCC(=O)N[C@H](C(=O)N[C@@H](Cc1ccc(O)cc1)C(N)=O)[C@@H](C)O)[C@@H](C)O)[C@@H](C)O)[C@@H](C)O ({C20 diacid-γGlu}-EASQLSTAVLGRLSQELHELQTYPRTGTGSGTY-NH2)
IC50 [2]: 0.338 nM
EC50 [3]: 0.066 nM
IC50 (Calcitonin receptor [10]): 0.796 nM
EC50 (Calcitonin receptor [11]): 0.056 nM
